Assay results reported in ChEMBL document CHEMBL1201862, “PubChem BioAssay data set” (2004).
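The compound was tested at five concentrations on cells cultured in 96-well plates, with a 48-hour exposure period. Abbreviation: GI50, concentration required for 50% inhibition of growth.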 The source made the active and inactive calls. Cut-off read from the data, not from the text of the source: active = GI50 up to about 1.1 µM and inactive = higher.

How the values were obtained:
Assay in all cases: inhibition of tumour cell growth, NCI panel, 48 h
LOX IMVI = test system: LOX IMVI
HOP-92 = test system: HOP-92
PC-3 = test system: PC-3
NCI/ADR-RES = test system: NCI/ADR-RES
SK-OV-3 = test system: SK-OV-3
MDA-N = test system: MDA-N
OVCAR-8 = test system: OVCAR-8
Hs-578T = test system: Hs-578T
Malme-3M = test system: Malme-3M
SNB-19 = test system: SNB-19
K562 = test system: K562
U-251 = test system: U-251
NCI-H522 = test system: NCI-H522
RPMI-8226 = test system: RPMI-8226
BT-549 = test system: BT-549
UACC-257 = test system: UACC-257
HOP-62 = test system: HOP-62
OVCAR-3 = test system: OVCAR-3
SF-539 = test system: SF-539

Compound | GI50 (LOX IMVI) | GI50 (HOP-92) | GI50 (PC-3) | GI50 (NCI/ADR-RES) | GI50 (SK-OV-3) | GI50 (MDA-N) | GI50 (OVCAR-8) | GI50 (Hs-578T) | GI50 (Malme-3M) | GI50 (SNB-19) | GI50 (K562) | GI50 (U-251) | GI50 (NCI-H522) | GI50 (RPMI-8226) | GI50 (BT-549) | GI50 (UACC-257) | GI50 (HOP-62) | GI50 (OVCAR-3) | GI50 (SF-539)
Oc1nc(-c2ccc3ccccc3c2)nc2ccccc12 | > 100 µM (inactive) | 17.4 µM (inactive) | > 100 µM (inactive) | 20 µM (inactive) | 30.3 µM (inactive) | 49.2 µM (inactive) | 12.7 µM (inactive) | 24.3 µM (inactive) | 33.6 µM (inactive) | 19.1 µM (inactive) | > 100 µM (inactive) | 25.5 µM (inactive) | 73.8 µM (inactive) | > 100 µM (inactive) | > 100 µM (inactive) | 74.6 µM (inactive) | 14.4 µM (inactive) | 35.4 µM (inactive) | 
CCCCC(=O)/C=c1/cc(C)[nH]c2cccc3cnn1c32 | > 100 µM (inactive) | 68.9 µM (inactive) | 49.1 µM (inactive) | > 100 µM (inactive) | > 100 µM (inactive) | > 100 µM (inactive) | > 100 µM (inactive) | > 100 µM (inactive) | > 100 µM (inactive) | > 100 µM (inactive) |  | > 100 µM (inactive) | > 100 µM (inactive) | 61.9 µM (inactive) | > 100 µM (inactive) | > 100 µM (inactive) | > 100 µM (inactive) | > 100 µM (inactive) | > 100 µM (inactive)
CC(C)(CO)N1C(=O)c2ccccc2C1(O)c1ccc(Cl)cc1 (centres undefined) |  |  | 44.3 µM (inactive) | > 100 µM (inactive) | > 100 µM (inactive) | > 100 µM (inactive) | > 100 µM (inactive) | > 100 µM (inactive) | > 100 µM (inactive) | > 100 µM (inactive) | > 100 µM (inactive) | > 100 µM (inactive) | > 100 µM (inactive) | > 100 µM (inactive) | > 100 µM (inactive) | > 100 µM (inactive) | > 100 µM (inactive) | 88.7 µM (inactive) | 
CCOC(=O)C1=[N+]([O-])OC2=C(O)CCCC21 (centres undefined) | > 100 µM (inactive) | > 100 µM (inactive) | > 100 µM (inactive) | > 100 µM (inactive) | > 100 µM (inactive) | > 100 µM (inactive) | > 100 µM (inactive) | > 100 µM (inactive) | > 100 µM (inactive) | > 100 µM (inactive) | > 100 µM (inactive) | > 100 µM (inactive) | > 100 µM (inactive) | > 100 µM (inactive) | > 100 µM (inactive) | > 100 µM (inactive) | > 100 µM (inactive) | > 100 µM (inactive) | 
C=CCN1C(=O)CC1N(CC=C)S(=O)(=O)c1ccc(C)cc1 (centres undefined) | > 100 µM (inactive) | > 100 µM (inactive) | > 100 µM (inactive) | > 100 µM (inactive) | > 100 µM (inactive) | > 100 µM (inactive) | > 100 µM (inactive) | > 100 µM (inactive) | > 100 µM (inactive) | > 100 µM (inactive) | 98.4 µM (inactive) | > 100 µM (inactive) | > 100 µM (inactive) | > 100 µM (inactive) | > 100 µM (inactive) | > 100 µM (inactive) |  | > 100 µM (inactive) | 
O=[N+]([O-])c1ccc(Sc2c3ccccc3nc3ccccc23)cn1 | 13 µM (inactive) | 4.28 µM (inactive) | 15.5 µM (inactive) | 39.5 µM (inactive) | > 53.8 µM (inactive) | 14.3 µM (inactive) | 15.3 µM (inactive) | 18 µM (inactive) | 3.24 µM (inactive) | 24.5 µM (inactive) | 2.49 µM (inactive) | > 44.2 µM (inactive) | 4.08 µM (inactive) |  | 14.6 µM (inactive) | 15.5 µM (inactive) | > 42.6 µM (inactive) | 8.11 µM (inactive) | 8.77 µM (inactive)
CCOC(=O)C(C/C=C/CO)N(C)C(=O)OC(C)(C)C (centres undefined) | > 100 µM (inactive) | > 100 µM (inactive) | > 100 µM (inactive) | > 100 µM (inactive) | > 100 µM (inactive) | > 100 µM (inactive) | > 100 µM (inactive) | 53.5 µM (inactive) |  | > 100 µM (inactive) | 83.9 µM (inactive) | > 100 µM (inactive) | 10.1 µM (inactive) | > 100 µM (inactive) | > 100 µM (inactive) | > 100 µM (inactive) | > 100 µM (inactive) | > 100 µM (inactive) | > 100 µM (inactive)
C/C(=N\n1c(Cc2ccccc2)n[nH]c1=O)c1ccccc1 | > 100 µM (inactive) | 26.8 µM (inactive) | > 100 µM (inactive) | > 100 µM (inactive) |  | > 100 µM (inactive) | > 100 µM (inactive) | > 100 µM (inactive) | > 100 µM (inactive) | > 100 µM (inactive) | > 100 µM (inactive) | > 100 µM (inactive) | > 100 µM (inactive) | > 100 µM (inactive) | > 100 µM (inactive) | > 100 µM (inactive) |  |  | > 100 µM (inactive)
O=[N+]([O-])c1ccc(N/N=C2/CC3=C2CCCCCCCCCC3)c([N+](=O)[O-])c1 |  |  | > 100 µM (inactive) | > 100 µM (inactive) | > 100 µM (inactive) | > 100 µM (inactive) | > 100 µM (inactive) | 39.3 µM (inactive) | > 100 µM (inactive) | > 100 µM (inactive) | > 100 µM (inactive) | > 100 µM (inactive) | > 100 µM (inactive) | > 100 µM (inactive) | > 100 µM (inactive) | > 100 µM (inactive) | > 100 µM (inactive) | > 100 µM (inactive) | 
C#C[C@]1(O)CC[C@H]2[C@@H]3CCC4=C/C(=N/OCCN(C)C)CC[C@]4(C)[C@H]3CC[C@@]21C | 37.8 µM (inactive) | 52.8 µM (inactive) | 27.7 µM (inactive) | 41.7 µM (inactive) | 40.1 µM (inactive) | 11.1 µM (inactive) | 49.7 µM (inactive) | 26.9 µM (inactive) | 22.1 µM (inactive) | 27.9 µM (inactive) | 6.82 µM (inactive) | 33.6 µM (inactive) | 16.3 µM (inactive) | 28.4 µM (inactive) | 65.9 µM (inactive) | 52.5 µM (inactive) | 29.9 µM (inactive) | 22 µM (inactive) | 
NC(=O)NC(=O)C1CCCCC1C(=O)O (centres undefined) | > 100 µM (inactive) | > 100 µM (inactive) | > 100 µM (inactive) | > 100 µM (inactive) | > 100 µM (inactive) | > 100 µM (inactive) | > 100 µM (inactive) | > 100 µM (inactive) | > 100 µM (inactive) | > 100 µM (inactive) | 5.11 µM (inactive) | > 100 µM (inactive) | > 100 µM (inactive) | > 100 µM (inactive) | > 100 µM (inactive) | > 100 µM (inactive) | > 100 µM (inactive) | > 100 µM (inactive) | > 100 µM (inactive)
Cc1ccc(-c2cc(-c3ccc(Cl)cc3)nc(/N=C3\C(=O)N(CN4CCOCC4)c4ccccc43)n2)cc1 | 24.2 µM (inactive) | 22.5 µM (inactive) | 26.5 µM (inactive) | 27.2 µM (inactive) | 31.1 µM (inactive) | 18.5 µM (inactive) | 19.5 µM (inactive) | 22.9 µM (inactive) | 22.9 µM (inactive) | 15.1 µM (inactive) | 23.1 µM (inactive) | 23.7 µM (inactive) | 14.3 µM (inactive) |  | 27.5 µM (inactive) | 19.5 µM (inactive) | 28 µM (inactive) | 33.9 µM (inactive) | 19.5 µM (inactive)
C/C=C/C=C\C=C/C(O)C(C)C(CCC(C)C1OC(=O)C=CC1C)OP(=O)(O)O (centres undefined) | 0.314 µM (active) | 0.244 µM (active) | 0.23 µM (active) | 0.897 µM (active) | 0.502 µM (active) | 0.296 µM (active) | 0.451 µM (active) | 1.42 µM (inactive) | 0.232 µM (active) | 0.562 µM (active) | 0.183 µM (active) | 0.893 µM (active) | 1.35 µM (inactive) | 0.127 µM (active) | 0.224 µM (active) | 1.15 µM (inactive) | 0.303 µM (active) | 0.182 µM (active) | 0.461 µM (active)
CON(C)C(=O)C(Cc1ccccc1)NC(=O)OC(C)(C)C (centres undefined) |  | > 100 µM (inactive) | > 100 µM (inactive) | > 100 µM (inactive) | > 100 µM (inactive) | > 100 µM (inactive) | > 100 µM (inactive) | > 100 µM (inactive) | > 100 µM (inactive) | > 100 µM (inactive) | > 100 µM (inactive) | > 100 µM (inactive) |  | > 100 µM (inactive) | > 100 µM (inactive) | > 100 µM (inactive) | > 100 µM (inactive) | > 100 µM (inactive) | > 100 µM (inactive)
CC1=CC2(C)C=C[C@@H]1C(=O)[C@@]1(C)CC[C@@](O)(C(C)C)[C@H]1CC2 | 19.1 µM (inactive) | 14.4 µM (inactive) | 24.2 µM (inactive) | 20.2 µM (inactive) | 23.6 µM (inactive) | 21.8 µM (inactive) | 17.1 µM (inactive) | 25.4 µM (inactive) | 19.4 µM (inactive) | 23.6 µM (inactive) | 20 µM (inactive) | 18.1 µM (inactive) |  | 26.5 µM (inactive) | 33.8 µM (inactive) | 16.4 µM (inactive) | 20.2 µM (inactive) | 16.1 µM (inactive) | 18.9 µM (inactive)
